# Assay results published in US20190375708A1 (VenatoRx Pharmaceuticals, Inc., priority 2018, published 2019).
# Like-named read-outs stand apart in the source and are kept apart here.
# Key:
# [1] = system: HBV replication in HepAD38 cells; experiment: Anti-HBV replication assay in HepAD38 cells (QPCR of extracellular HBV DNA); assay type: cell-based, HBV (genotype D, serotype ayw); settings: Hepatitis B virus
# Protocol: The anti-HBV activity of the Capsid Assembly Modulators (CAMs) was evaluated in a cell based assay utilizing the human hepatoma cell line HepAD38 (Ladner, S K., et al., 1998). HepAD38 cells were derived from the parental line, HepG2, that were stably transfected with a construct containing an HBV genome (genotype D, serotype ayw) under the control of a tetracycline repressible CMV promoter. Upon removal of tetracycline, viral pre-genomic RNA (pgRNA) and mRNAs are expressed and infectious viral particles are assembled and secreted into the culture medium providing a reliable, robust system to measure multiple steps of the HBV life cycle. Disruption of capsid formation results in reduced levels of DNA-containing virus particles that are released into the culture supernatant. To quantify the effect of CAMs on HBV replication, we developed a sensitive QPCR-based assay that measures extracellular HBV DNA levels upon treatment of HepAD38 cells with various concentrations of test compounds.
# HepAD38 cells were maintained in DMEM/F12 medium containing 10% FBS, 400 μg/mL G418 and 0.3 μg/mL tetracycline (tet+ media) to maintain repression of HBV replication. To evaluate each compound, HepAD38 cells were seeded into 24-well collagen coated culture plates (Corning BioCoat) at a density of 200,000 cells per well in 1 mL of medium without tetracycline (tet-media) and allowed to adhere overnight at 37° C., 5% CO2 in a humidified incubator. The following day, media was refreshed and a dose range of each compound was prepared by performing 1 log10 serial dilutions in 100% DMSO at 200× the desired assay concentration. Dilutions were then added to the cells resulting in a final dose range of 1 μM to 10 μM and the plates were returned to the incubator. Following 7 days of incubation, culture supernatants were harvested and HBV DNA levels were evaluated by QPCR and compared to the vehicle treated control wells (i.e. DMSO alone).
# To quantify HBV DNA levels, cell culture supernatants were diluted 1:10 in sterile, nuclease-free water (Gibco). The diluted supernatants were subsequently added to a PCR master mix containing 1× Roche Light Cycler Master Mix, 0.5 μM forward primer, 0.5 μM reverse primer (Fwd: 5′-[…] (SEQ ID NO 1); Rev: 5′-[…] (SEQ ID NO 2)), 0.2 μM Roche Universal Probe Library Probe 25. The volume was brought to 20 μL with nuclease-free water and amplification of the HBV target sequence was performed using a Roche LightCycler 480 QPCR instrument. PCR extended out to 45 cycles with each cycle consisting of a denaturation step at 95° C. for 10 sec., followed by an annealing step at 60° C. for 10 sec. and a brief extension step at 72° C. for 1 sec.
# Extracellular HBV DNA levels, expressed in copies/mL, were determined by comparison to a standard curve (10^2-10^9 copies/mL) using the Roche LightCycler analysis software. These values were subsequently converted to percent inhibition of HBV replication by dividing the HBV DNA levels in the experimental samples with those obtained from the vehicle control (˜1-2×10^5 copies/mL). Potency, expressed as an EC50 (the effective concentration required to inhibit 50% of HBV replication), was calculated from the dose-response curve using a 4-parameter non-linear regression analysis (GraphPad Prism). The nucleoside analog inhibitor entecavir was used as a positive control to validate each assay run. The EC50 value of entecavir in the HepAD38 assay was 0.5 nM, as previously reported in the literature.
# [2] = In vitro cytotoxicity assay (MTT cell viability) in HepG2 cells; assay type: cell-based, human; settings: human
# Protocol: To evaluate antiviral selectivity, the cytotoxic activity of each compound was determined using a standard cell viability assay performed on the parental HepG2 cell line. Cell viability was determined by measuring the conversion of 3-(4,5-dimethylthiazol-2-yl)-2,5-diphenyltetrazolium bromide (MTT) to the insoluble formazan salt crystal that occurs in live cells. Briefly, HepG2 cells were seeded in 96-well plates at a density of 20,000 cells per well in EMEM+10% FBS (complete growth medium) and allowed to adhere overnight in a 37° C., 5% CO2 humidified incubator. The next day, test agents were prepared by performing 8 half-log10 serial dilutions in 100% DMSO at 200× the final desired concentration in the assay. Compounds were tested over a range of concentrations from 30 μM to 1.0 nM in the assay. HepG2 cells were incubated in the presence of various concentrations of CAMs for 7 days in a 37° C., 5% CO2 humidified incubator. At the completion of the 7-day incubation period, MTT reagent was added to each well and the mixture was incubated for an additional 3-4 hours. At the completion of the incubation period, all wells were aspirated to remove the culture medium. The formazan crystals were solubilized from the cell monolayers with 100% DMSO. Plates were briefly mixed on an orbital shaker and absorbance was measured at 492 nm using a Perkin-Elmer EnVision multi-label plate reader. All absorbance values were converted to a percentage of the signal obtained from the vehicle treated controls. Absorbance values at 492 nm are directly proportional to the number of viable cells present in the sample. A CC50 value (cytotoxic concentration that results in loss of 50% cell viability) was calculated from the dose-response curve by 4-parameter, non-linear regression analysis using the GraphPad Prism software. The positive control compound, staurosporine, reduced the viability of HepG2 cells in a dose-dependent manner (CC50=100 nM).
# [3] = 168 h, 7 days incubation, extracellular HBV DNA by QPCR, read-out: Anti-HBV EC50
Structure (SMILES),"EC50 [1, 3] [nM]",CC50 at 7 days [2] [nM],"CC50 at 7 days ([2]; positive control, HepG2 cells, 7 days, MTT, read-out: CC50 (loss of 50% cell viability)) [nM]","EC50 ([1]; positive control, read-out: EC50 in the HepAD38 assay) [nM]"
"Cc1noc([C@H](C)NC(=O)C(=O)c2c(Cl)c(C(=O)Nc3ccc(F)c(Cl)c3)c3n2CCC3)n1 [Example 553, (S)-6-chloro-N-(3-chloro-4-fluorophenyl)-5-(2-((1-(3-methyl-1,2,4-oxadiazol-5-yl)ethyl)amino)-2-oxoacetyl)-2,3-dihydro-1H-pyrrolizine-7-carboxamide]",< 50,5000 to 30000,,
"Cc1cc(NC(=O)c2c(C)c(C(=O)C(=O)NCCc3ccsc3)n(C)c2C)ccc1F [Example 646, N-(4-fluoro-3-methylphenyl)-1,2,4-trimethyl-5-(2-oxo-2-((2-(thiophen-3-yl)ethyl)amino)acetyl)-1H-pyrrole-3-carboxamide]",< 50,5000 to 30000,,
"Cc1cc(NC(=O)c2c(C)c(C(=O)C(=O)NCC(C)(C)CO)n3c2CCCC3)cnc1F [Example 476, N-(6-fluoro-5-methylpyridin-3-yl)-3-(2-((3-hydroxy-2,2-dimethylpropyl)amino)-2-oxoacetyl)-2-methyl-5,6,7,8-tetrahydroindolizine-1-carboxamide]",> 1000,5000 to 30000,,
"Cc1cc(NC(=O)c2c(Cl)c(C(=O)C(=O)NC(C)(C)CO)n3c2CCCC3)cnc1F [Example 508, 2-chloro-N-(6-fluoro-5-methylpyridin-3-yl)-3-(2-((1-hydroxy-2-methylpropan-2-yl)amino)-2-oxoacetyl)-5,6,7,8-tettrahydroindolizine-1-carboxamide]",500 to 1000,> 30000,,
"Cc1cc(NC(=O)c2c(C)c(C(=O)C(=O)NC3(CO)CCC3)n(C)c2C)ccc1F [Example 12, N-(4-fluoro-3-methylphenyl)-5-(2-((1-(hydroxymethyl)cyclobutyl)amino)-2-oxoacetyl)-1,2,4-trimethyl-1H-pyrrole-3-carboxamide]",< 50,> 30000,,
"Cc1cc(NC(=O)c2c(C)c(C(=O)C(=O)N[C@H]3CC[C@](C)(O)CC3)n3c2CCCC3)ccc1F [Example 740, N-(4-fluoro-3-methylphenyl)-3-(2-(((1r,4r)-4-hydroxy-4-methylcyclohexyl)amino)-2-oxoacetyl)-2-methyl-5,6,7,8-tetrahydroindolizine-1-carboxamide]",< 50,> 30000,,
"Cc1cc(NC(=O)c2c(C)c(C(=O)C(=O)N[C@H]3c4ccccc4C[C@@H]3O)n(C)c2C)ccc1F [Example 259, N-(4-fluoro-3-methylphenyl)-5-(2-(((1S,2S)-2-hydroxy-2,3-dihydro-1H-inden-1-yl)amino)-2-oxoacetyl)-1,2,4-trimethyl-1H-pyrrole-3-carboxamide]",< 50,> 30000,,
"Cc1csc(NC(=O)C(=O)c2c(C)c(C(=O)Nc3cnc(F)c(C)c3)c(C)n2C)n1 [Example 342, N-(6-fluoro-5-methylpyridin-3-yl)-1,2,4-trimethyl-5-(2-((4-methylthiazol-2-yl)amino)-2-oxoacetyl)-1H-pyrrole-3-carboxamide]",500 to 1000,> 30000,,
"Cc1cc(NC(=O)c2c(C)c(C(=O)C(=O)N[C@H]3COC[C@@H]3O)n(CCF)c2C)ccc1F [Example 130, N-(4-fluoro-3-methylphenyl)-1-(2-fluoroethyl)-5-(2-(((3S,4R)-4-hydroxytetrahydrofuran-3-yl)amino)-2-oxoacetyl)-2,4-dimethyl-1H-pyrrole-3-carboxamide]",50 to 499,> 30000,,
"Cc1cc(NC(=O)c2c(C)c(C(=O)C(=O)NC3CCN(C)C(=O)C3)n(C)c2C)ccc1F (centres unmarked) [Example 609, N-(4-fluoro-3-methylphenyl)-1,2,4-trimethyl-5-(2-((1-methyl-2-oxopiperidin-4-yl)amino)-2-oxoacetyl)-1H-pyrrole-3-carboxamide]",< 50,> 30000,,
"Cc1cc(NC(=O)c2c(C)c(C(=O)C(=O)N[C@@H]3c4ccccc4C[C@@H]3O)n(C)c2C)ccc1F [Example 258, N-(4-fluoro-3-methylphenyl)-5-(2-(((1R,2S)-2-hydroxy-2,3-dihydro-1H-inden-1-yl)amino)-2-oxoacetyl)-1,2,4-trimethyl-1H-pyrrole-3-carboxamide]",< 50,5000 to 30000,,
"Cc1cc(NC(=O)c2c(C)c(C(=O)C(=O)NC3(C(N)=O)CC3)n(C)c2C)ccc1F [Example 37, 5-(2-((1-carbamoylcyclopropyl)amino)-2-oxoacetyl)-N-(4-fluoro-3-methylphenyl)-1,2,4-trimethyl-1H-pyrrole-3-carboxamide]",< 50,> 30000,,
"Cc1noc([C@H](NC(=O)C(=O)c2c(Cl)c(C(=O)Nc3ccc(F)c(C)c3)c3n2CCC3)C(C)C)n1 [Example 544, (R)-6-chloro-N-(4-fluoro-3-methylphenyl)-5-(2-((2-methyl-1-(3-methyl-1,2,4-oxadiazol-5-yl)propyl)amino)-2-oxoacetyl)-2,3-dihydro-1H-pyrrolizine-7-carboxamide]",< 50,> 30000,,
"Cc1cc(NC(=O)c2c(C)c(C(=O)C(=O)NC3CCNCC3)n(C)c2C)ccc1F [Example 233, N-(4-fluoro-3-methylphenyl)-1,2,4-trimethyl-5-(2-oxo-2-(piperidin-4-ylamino)acetyl)-1H-pyrrole-3-carboxamide]",50 to 499,> 30000,,
Cc1cc(NC(=O)c2c(C)c(C(=O)C(=O)NC3CCOCC3(C)C)n(C)c2C)ccc1F (centres unmarked) [Example 281],< 50,5000 to 30000,,
"Cc1cc(NC(=O)c2c(C)c(C(=O)C(=O)NC34CC5CC(CC3C5)C4)n(C)c2C)cnc1F [Example 113, N-(6-fluoro-5-methylpyridin-3-yl)-5-(2-(((2R,3as,5S,6as)-hexahydro-2,5-methanopentalen-3a(1H)-yl)amino)-2-oxoacetyl)-1,2,4-trimethyl-1H-pyrrole-3-carboxamide]",< 50,> 30000,,
"CN[C@@H]1C[C@H]2O[C@@](C)([C@@H]1OC)n1c3ccccc3c3c4c(c5c6ccccc6n2c5c31)C(=O)NC4 [staurosporine, reference compound]",,,100,
"Cc1c(C(=O)Nc2ccc(F)c(Cl)c2)c(C)n(C)c1C(=O)C(=O)Nc1ccc(F)cn1 [Example 310, N-(3-chloro-4-fluorophenyl)-5-(2-((5-fluoropyridin-2-yl)amino)-2-oxoacetyl)-1,2,4-trimethyl-1H-pyrrole-3-carboxamide]",< 50,,,
"C=C1[C@H](CO)[C@@H](O)C[C@@H]1n1cnc2c(=O)[nH]c(N)nc21 [entecavir, reference compound]",,,,0.5
